The values that follow come from ChEMBL document CHEMBL4028802, “DILIrank: the largest reference drug list ranked by the risk for developing drug-induced liver injury in humans” (Drug Discov Today, 2016).

For data set [1], the species on record is Homo sapiens. As to the kind of experiment: Liver toxicity in human assessed as induction of drug-induced liver injury by measuring severity class index.
The species named for data set [2] is Homo sapiens. As to the kind of experiment: Liver toxicity in human assessed as induction of drug-induced liver injury by measuring verified drug-induced liver injury concern status.

Non-standard residues stand in square brackets, D forms with d. Residues, ends and D or L forms follow the SMILES beside them. dPhe(4-Cl) = N[C@H](Cc1ccc(Cl)cc1)C(=O)O; d2Nal = N[C@H](Cc1ccc2ccccc2c1)C(=O)O; dCit = NC(=O)NCCC[C@@H](N)C(=O)O; d3Pal = N[C@H](Cc1cccnc1)C(=O)O
For DILI severity class in this document: key of the grades not given here.

Take `CC(=O)N[C@H](Cc1ccc2ccccc2c1)C(=O)N[C@H](Cc1ccc(Cl)cc1)C(=O)N[C@H](Cc1cccnc1)C(=O)N[C@@H](CO)C(=O)N[C@@H](Cc1ccc(O)cc1)C(=O)N[C@H](CCCNC(N)=O)C(=O)N[C@@H](CC(C)C)C(=O)N[C@@H](CCCNC(=N)N)C(=O)N1CCC[C@H]1C(=O)N[C@H](C)C(N)=O` [CETRORELIX] (Ac-[d2Nal][dPhe(4-Cl)][d3Pal]SY[dCit]LRP[dA]-NH2): the DILI_severity_class in data set [1] is recorded as 3. Also, the DILI_Concern entry in data set [2] is “Ambiguous-Dili-Concern”.
As for `CC1OC2(CS1)CN1CCC2CC1` (configuration not stated) [CEVIMELINE], the DILI_severity_class in data set [1] was determined as 3. For the same compound, the DILI_Concern entry in data set [2] is listed as “Ambiguous-Dili-Concern”.
For the compound `C[C@H](CCC(=O)O)[C@H]1CC[C@H]2[C@@H]3[C@H](O)C[C@@H]4C[C@H](O)CC[C@]4(C)[C@H]3CC[C@]12C` [CHENODIOL], in data set [1], the DILI_severity_class worked out at 8. For the same compound, the DILI_Concern result in data set [2] is “Ambiguous-Dili-Concern”.
Regarding `O=C(O)CCCc1ccc(N(CCCl)CCCl)cc1` [CHLORAMBUCIL], the DILI_severity_class in data set [1] was determined as 3. Moreover, the DILI_Concern result in data set [2] is “Less-Dili-Concern”.
As for `O=C(N[C@H](CO)[C@H](O)c1ccc([N+](=O)[O-])cc1)C(Cl)Cl` [CHLORAMPHENICOL], in data set [1], the DILI_severity_class worked out at 0. For the same compound, the DILI_Concern entry in data set [2] was “No-Dili-Concern”.
As to `CN1CCN(C(c2ccccc2)c2ccc(Cl)cc2)CC1` (configuration not stated) [CHLORCYCLIZINE], in data set [1], the DILI_severity_class is reported as 0. In addition, the DILI_Concern entry in data set [2] is “Less-Dili-Concern”.
As for `CNC1=Nc2ccc(Cl)cc2C(c2ccccc2)=[N+]([O-])C1` [CHLORDIAZEPOXIDE], the DILI_severity_class in data set [1] was determined as 5. Moreover, the DILI_Concern entry in data set [2] is “Less-Dili-Concern”.
For `CN1C(=O)CCS(=O)(=O)C1c1ccc(Cl)cc1` (configuration not stated) [CHLORMEZANONE] the same measures were 8 and “Most-Dili-Concern”.
For `CCN(CC)CCCC(C)Nc1ccnc2cc(Cl)ccc12` (configuration not stated) [CHLOROQUINE] the same measures were 3 and “Less-Dili-Concern”.
Take `NS(=O)(=O)c1cc2c(cc1Cl)N=CNS2(=O)=O` [CHLOROTHIAZIDE]: the DILI_severity_class in data set [1] is 2. For the same compound, in data set [2], the DILI_Concern entry is reported as “Less-Dili-Concern”.
For `CN(C)CCC(c1ccc(Cl)cc1)c1ccccn1` (configuration not stated) [CHLORPHENIRAMINE] the same measures were 0 and “No-Dili-Concern”.
For `CN(C)CCCN1c2ccccc2Sc2ccc(Cl)cc21` [CHLORPROMAZINE] the same measures were 2 and “Less-Dili-Concern”.
For `CCCNC(=O)NS(=O)(=O)c1ccc(Cl)cc1` [CHLORPROPAMIDE] the same measures were 2 and “Less-Dili-Concern”.
In the case of `NS(=O)(=O)c1cc(C2(O)NC(=O)c3ccccc32)ccc1Cl` (configuration not stated) [CHLORTHALIDONE], in data set [1], the DILI_severity_class came to 2. Further, the DILI_Concern result in data set [2] is recorded as “Ambiguous-Dili-Concern”.
For `Nc1ccn(C[C@@H](CO)OCP(=O)(O)O)c(=O)n1.O.O` [CIDOFOVIR] the same measures were 5 and “Ambiguous-Dili-Concern”.
For `O=C1CCc2cc(OCCCCc3nnnn3C3CCCCC3)ccc2N1` [CILOSTAZOL] the same measures were 5 and “Ambiguous-Dili-Concern”.
For `CN/C(=N/CCSCc1nc[nH]c1C)NC#N` [CIMETIDINE] the same measures were 2 and “Less-Dili-Concern”.
`O=C(O)c1cc(-c2ccccc2)nc2ccccc12` [CINCHOPHEN]: in data set [1], the DILI_severity_class amounted to 8. Also, the DILI_Concern entry in data set [2] is listed as “Most-Dili-Concern”.
Turning to `O=C(O)c1cn(C2CC2)c2cc(N3CCNCC3)c(F)cc2c1=O` [CIPROFLOXACIN], the DILI_severity_class in data set [1] is recorded as 7. Also, in data set [2], the DILI_Concern entry was “Most-Dili-Concern”.
For `COc1ccc(C[C@@H]2c3cc(OC)c(OC)cc3CC[N@+]2(C)CCC(=O)OCCCCCOC(=O)CC[N@@+]2(C)CCc3cc(OC)c(OC)cc3[C@H]2Cc2ccc(OC)c(OC)c2)cc1OC.O=S(=O)([O-])c1ccccc1.O=S(=O)([O-])c1ccccc1` [CISATRACURIUM BESYLATE] the same measures were 0 and “No-Dili-Concern”.
For `CN(C)CCCC1(c2ccc(F)cc2)OCc2cc(C#N)ccc21` (configuration not stated) [CITALOPRAM] the same measures were 7 and “Less-Dili-Concern”.
With `Nc1nc(Cl)nc2c1ncn2[C@H]1C[C@H](O)[C@@H](CO)O1` [CLADRIBINE], the DILI_severity_class in data set [1] came to 3. Also, the DILI_Concern entry in data set [2] was “Ambiguous-Dili-Concern”.
For `CC[C@H]1OC(=O)[C@H](C)[C@@H](O[C@H]2C[C@@](C)(OC)[C@@H](O)[C@H](C)O2)[C@H](C)[C@@H](O[C@@H]2O[C@H](C)C[C@H](N(C)C)[C@H]2O)[C@](C)(OC)C[C@@H](C)C(=O)[C@H](C)[C@@H](O)[C@]1(C)O` [CLARITHROMYCIN] the same measures were 8 and “Most-Dili-Concern”.
For `CN1CCC[C@@H]1CCO[C@](C)(c1ccccc1)c1ccc(Cl)cc1` [CLEMASTINE] the same measures were 0 and “No-Dili-Concern”.
For `CCCC(=O)OCOC(=O)C1=C(C)NC(C)=C(C(=O)OC)C1c1cccc(Cl)c1Cl` (configuration not stated) [CLEVIDIPINE] the same measures were 0 and “No-Dili-Concern”.
For the compound `CCC[C@@H]1C[C@@H](C(=O)N[C@@H]([C@H]2O[C@H](SC)[C@H](OP(=O)(O)O)[C@@H](O)[C@H]2O)[C@H](C)Cl)N(C)C1` [CLINDAMYCIN PHOSPHATE], the DILI_severity_class in data set [1] is 3. Further, the DILI_Concern result in data set [2] is “Ambiguous-Dili-Concern”.
For `CCC[C@@H]1C[C@@H](C(=O)N[C@@H]([C@H]2O[C@H](SC)[C@H](O)[C@@H](O)[C@H]2O)[C@H](C)Cl)N(C)C1` [CLINDAMYCIN] the same measures were 3 and “Less-Dili-Concern”.
Turning to `Nc1nc(Cl)nc2c1ncn2[C@@H]1O[C@H](CO)[C@@H](O)[C@@H]1F` [CLOFARABINE], the DILI_severity_class in data set [1] is given as 8. Further, in data set [2], the DILI_Concern entry is “Ambiguous-Dili-Concern”.
In the case of `CCOC(=O)C(C)(C)Oc1ccc(Cl)cc1` [CLOFIBRATE], the DILI_severity_class in data set [1] was determined as 3. For the same compound, in data set [2], the DILI_Concern result was “Less-Dili-Concern”.
For `CN(C)CCCC1c2ccccc2Nc2ccc(Cl)cc21` (configuration not stated) [CLOMACRAN] the same measures were 8 and “Most-Dili-Concern”.
For `COc1ccc2c(C(=O)c3ccc(Cl)cc3)c(C)n(CC(=O)O)c2c1` [CLOMETACIN] the same measures were 8 and “Most-Dili-Concern”.
Take `CCN(CC)CCOc1ccc(C(=C(Cl)c2ccccc2)c2ccccc2)cc1` [CLOMIPHENE]: in data set [1], the DILI_severity_class stood at 3. Further, the DILI_Concern result in data set [2] is “Less-Dili-Concern”.
For `CN(C)CCCN1c2ccccc2CCc2ccc(Cl)cc21` [CLOMIPRAMINE] the same measures were 8 and “Most-Dili-Concern”.
For `O=C1CN=C(c2ccccc2Cl)c2cc([N+](=O)[O-])ccc2N1` [CLONAZEPAM] the same measures were 3 and “Less-Dili-Concern”.
For `Clc1cccc(Cl)c1N=C1NCCN1` [CLONIDINE] the same measures were 3 and “Ambiguous-Dili-Concern”.
In the case of `COC(=O)[C@H](c1ccccc1Cl)N1CCc2sccc2C1` [CLOPIDOGREL], the DILI_severity_class in data set [1] turned out to be 7. For the same compound, in data set [2], the DILI_Concern result is on record as “Less-Dili-Concern”.
For the compound `O=C(O)C1N=C(c2ccccc2)c2cc(Cl)ccc2NC1=O` (configuration not stated) [CLORAZEPIC ACID], the DILI_severity_class in data set [1] amounted to 3. Besides, the DILI_Concern result in data set [2] is reported as “Ambiguous-Dili-Concern”.
For `Clc1ccccc1C(c1ccccc1)(c1ccccc1)n1ccnc1` [CLOTRIMAZOLE] the same measures were 3 and “Less-Dili-Concern”.
For the compound `Cc1onc(-c2ccccc2Cl)c1C(=O)N[C@@H]1C(=O)N2[C@@H]1SC(C)(C)[C@@H]2C(=O)O` [CLOXACILLIN], in data set [1], the DILI_severity_class is reported as 3. For the same compound, the DILI_Concern result in data set [2] is reported as “Less-Dili-Concern”.
Take `CN1CCN(C2=Nc3cc(Cl)ccc3Nc3ccccc32)CC1` [CLOZAPINE]: the DILI_severity_class in data set [1] stood at 5. In addition, the DILI_Concern result in data set [2] is “Most-Dili-Concern”.
For `COc1ccc2c3c1O[C@H]1[C@@H](O)C=C[C@H]4[C@@H](C2)N(C)CC[C@@]341` [CODEINE] the same measures were 0 and “No-Dili-Concern”.
Regarding `COc1cc2c(c(OC)c1OC)-c1ccc(OC)c(=O)cc1[C@@H](NC(C)=O)CC2` [COLCHICINE], in data set [1], the DILI_severity_class turned out to be 6. For the same compound, the DILI_Concern entry in data set [2] is reported as “Ambiguous-Dili-Concern”.
Turning to `Cc1nc2c([nH]1)-c1ccccc1N(C(=O)c1ccc(NC(=O)c3ccccc3-c3ccccc3)cc1)CC2` [CONIVAPTAN], in data set [1], the DILI_severity_class came to 0. Besides, the DILI_Concern result in data set [2] is recorded as “No-Dili-Concern”.
For `CC(=O)OCC(=O)[C@@]1(O)CC[C@H]2[C@@H]3CCC4=CC(=O)CC[C@]4(C)[C@H]3C(=O)C[C@@]21C` [CORTISONE ACETATE] the same measures were 0 and “No-Dili-Concern”.
For `CN(C)CCC=C1c2ccccc2C=Cc2ccccc21` [CYCLOBENZAPRINE] the same measures were 5 and “Less-Dili-Concern”.
For `CC(=O)Oc1ccc(C(=C2CCCCC2)c2ccc(OC(C)=O)cc2)cc1` [CYCLOFENIL] the same measures were 8 and “Most-Dili-Concern”.
As for `O=P1(N(CCCl)CCCl)NCCCO1` (configuration not stated) [CYCLOPHOSPHAMIDE ANHYDROUS], the DILI_severity_class in data set [1] is 5. For the same compound, the DILI_Concern result in data set [2] is recorded as “Less-Dili-Concern”.
For `N[C@@H]1CON=C1O` [CYCLOSERINE] the same measures were 3 and “Ambiguous-Dili-Concern”.
Regarding `CN1CCC(=C2c3ccccc3C=Cc3ccccc32)CC1` [CYPROHEPTADINE], the DILI_severity_class in data set [1] turned out to be 7. In addition, the DILI_Concern entry in data set [2] was “Less-Dili-Concern”.
For the compound `NCCS` [CYSTEAMINE], the DILI_severity_class in data set [1] turned out to be 3. For the same compound, the DILI_Concern entry in data set [2] is on record as “Ambiguous-Dili-Concern”.
Turning to `N[C@@H](CS)C(=O)O` [CYSTEINE], the DILI_severity_class in data set [1] was 3. For the same compound, in data set [2], the DILI_Concern result was “Ambiguous-Dili-Concern”.
